In US20050171215A1, “Germicidal compositions containing halogenated phthalaldehyes, and methods of using such compositions for disinfection or sterilization” (Ethicon, Inc., priority 2004, published 2005):
Read-outs that look alike come from different tables or passages of the source. Values belong to the compound of their own block, whether it stands above or below them.

Experiments:
[1] = system: Mycobacterium terrae bacteria; assay: bacterial suspension test; assay type: cell-based; settings: for Germicidal Efficacy: summary Table 14
Procedure: In Examples 1 to 3, which follow, several germicidal solutions containing either the 4-fluoro-, 4-chloro-, or 4-bromo-phthalaldehyde compound were tested to determine their effectiveness in killing at least 1×10^6/mL of Mycobacterium terrae bacteria using a bacterial suspension test. The bacterial suspension test that was employed is described in Section VII.
The solutions were prepared by adding the appropriate amounts of the germicidal compounds to an aqueous solution. Unless otherwise mentioned all concentrations reported herein are expressed in (w/v)%. The pH of the solution was not adjusted. The tests were conducted at a temperature of about 20° C. (room temperature). The results are presented in terms of log reductions/mL. It is understood that these examples, as well as the other examples herein, are to be construed as merely illustrative, and not limiting.
In this test method, 9 mL of the germicide to be tested is placed in a tube, put into a water bath and allowed to come to the desired temperature. One mL of the test organism, including at least 7 logs/mL of Mycobacterium terrae bacteria, is added to the 9 mL of the germicide to be tested. […] It will be appreciated by those skilled in the art that other concentrations may be utilized by proper dilution and accounting.
At appropriate time intervals, 1 mL aliquots of the germicide-cell suspension were removed and added directly into 9 mL of a 1% glycine solution (neutralizer) and mixed thoroughly to neutralize the germicide in the transferred suspension. The glycine solution was prepared from solid glycine, which is available from VWR Scientific Products, among others. The above-identified 10 mL neutralized solution was then poured through a membrane filter having an average pore size of 0.45 micrometers. The filter was then rinsed twice with at least 150 mL of the 1% glycine solution per rinse. The filter was then placed on an agar plate and incubated for twenty-one days at 37° C. In the above procedure, if dilution was needed, then the 1 mL germicidal-cell suspension was diluted in 99 mL of a phosphate buffer before addition to the 9 mL of the 1% glycine solution. The phosphate buffer was DiLu-LoK™ Butterfields Phosphate Buffer, available from Hardy Diagnostics, of Santa Maria, Calif.
The surviving colonies are then counted. The data is plotted as S/So vs. time. So is the initial count of the bacteria in the above 10 mL solution which is at least 10^6 bacteria/mL, and S is the surviving bacteria from the above filter on the agar plate. The results of the experiments were presented in terms of log reductions. Log reduction is the difference between log(So) and log(S). As one example, if log(So)=6.2, and if there were 100 survivors, then the log(S)=2, and the log reduction was reported as 4.2.

solubility in water = assay type: physicochemical

Compound: 4-pyridinyl-propanedial
Log Reductions/mL ([1]; Saturated (˜2.3% w/v), 5 min, 20° C.): 4.0 log reductions/mL

Compound: O=CC(c1ccccc1)C(O)S(=O)(=O)[O-].[Na+] (stereo not shown) [1-hydroxy-3-oxo-2-phenyl-propane-1-sulfonic acid, sodium salt]
Log Reductions/mL ([1]; 0.6%, 20° C., 60 min): Total Kill
log reduction at 0.6 % ([1]; Mycolicibacter terrae, 5 min, 0.6%, 20° C., 5 min, read-out: Log Reductions/mL): 2.1
log reduction at 0.6 % ([1]; Mycolicibacter terrae, 20 min, 0.6%, 20° C., 20 min, read-out: Log Reductions/mL): 2.5
log reduction at 0.6 % ([1]; Mycolicibacter terrae, 25 min, 0.6%, 20° C., 25 min, read-out: Log Reductions/mL): 2.9

Compound: O=CC(C=O)c1cccc(C(=O)O)c1[N+](=O)[O-] [3-(1-formyl-2-oxoethyl)-2-nitro-benzoic acid]
log reduction at 2.1 % ([1]; Mycolicibacter terrae, 5 min, Saturated (˜2.1% w/v), 5 min, 20° C., read-out: Log Reductions/mL): 4

Compound: O=Cc1ccc(Br)cc1C=O [4-bromo-phthalaldehyde]
Log Reductions/mL ([1]; 0.1%, 20° C., 30 minutes exposure): Total Kill
time to achieve a total kill of the bacteria ([1]; about 0.1%, 20° C.): 10 to 30 min

Compound: O=Cc1ccc(Cl)cc1C=O [4-chloro-phthalaldehyde]
Log Reductions/mL ([1]; 2.7 w/v % (in 20% isopropanol), 20° C., 5 min): Total Kill
concentration effective to achieve a total kill of all bacteria ([1]; in five minutes, 20° C.): 0.2 to 2.7%

Compound: O=Cc1ccc(F)cc1C=O [4-fluoro-phthalaldehyde]
Log Reductions/mL ([1]; 0.25%, 20° C., 60 minutes exposure): Total Kill
time to achieve a total kill of the bacteria ([1]; about 0.25%, 20° C.): 30 to 60 min

Compound: O=Cc1ccccc1C(O)S(=O)(=O)[O-].[Na+] (stereo not shown) [(2-formyl-phenyl)-hydroxy-methane sulfonic acid, sodium salt]
Log Reductions/mL ([1]; 9.1%, 20° C., 5 min): Confluent

Compound: O=Cc1cccc(C=O)c1 [IPA, isophthalaldehyde, reference compound]
Log Reductions/mL ([1]; 0.3%, dissolved in 20% isopropanol, 20° C., 5 min (Table 11)): Confluent
Log Reductions/mL ([1]; 0.3%, dissolved in 20% isopropanol, 20° C., 5 min (Table 15)): Confluent
Germicidal Efficacy [1]: Poor

solubility in water (solubility in water): about 5 % by weight
Compound: O=Cc1ccccc1C=O [OPA, phthalaldehyde, reference compound]
log reduction at 0.14 % ([1]; Mycolicibacter terrae, 5 min, 0.14%, 20° C., 5 min, read-out: Log Reductions/mL): 4.8
log reduction at 0.28 % ([1]; Mycolicibacter terrae, 5 min, 0.28%, 20° C., 5 min, read-out: Log Reductions/mL): 5.5
Germicidal Efficacy [1]: Good

Compound: O=Cc1ccc(C=O)cc1 [TPA, terephthalaldehyde, reference compound]
Log Reductions/mL ([1]; 0.2%, dissolved in 20% isopropanol, 20° C., 5 min): Confluent
Germicidal Efficacy [1]: Poor

solubility in water (solubility in water): about 1%
Compound: O=CC(C=O)c1ccccc1 [phenyl-propanedial]
Log Reductions/mL ([1]; 0.4%, 20° C., 60 min): Total Kill
Log Reductions/mL ([1]; 0.44%, 20° C., 60 min): Total Kill
Log Reductions/mL ([1]; 0.66%, 20° C., 15 min): Total Kill
Log Reductions/mL ([1]; 0.7%, 20° C., 15 min): Total Kill
Log Reductions/mL ([1]; (˜1%), 20° C., 5 min): 4.5 log reductions/mL
log reduction at 0.66 % ([1]; Mycolicibacter terrae, 5 min, 0.66%, 20° C., 5 min, read-out: Log Reductions/mL): < 2.5
log reduction at 1 % ([1]; Mycolicibacter terrae, 5 min, ˜1%, 20° C., 5 min (Table 15), read-out: Log Reductions/mL): 4.5
log reduction at 0.66 % ([1]; Mycolicibacter terrae, 10 min, 0.66%, 20° C., 10 min, read-out: Log Reductions/mL): 2.5
log reduction at 0.7 % ([1]; Mycolicibacter terrae, 10 min, 0.7%, 20° C., 10 min, read-out: Log Reductions/mL): 2.5
log reduction at 0.3 % ([1]; Mycolicibacter terrae, 0.5 h, 0.3%, 20° C., 30 min, read-out: Log Reductions/mL): 2.1
log reduction at 0.33 % ([1]; Mycolicibacter terrae, 0.5 h, 0.33%, 20° C., 30 min, read-out: Log Reductions/mL): 2.1
log reduction at 0.4 % ([1]; Mycolicibacter terrae, 0.5 h, 0.4%, 20° C., 30 min, read-out: Log Reductions/mL): 2.5
log reduction at 0.44 % ([1]; Mycolicibacter terrae, 0.5 h, 0.44%, 20° C., 30 min, read-out: Log Reductions/mL): 2.5
log reduction at 0.2 % ([1]; Mycolicibacter terrae, 1 h, 0.2%, 20° C., 60 min, read-out: Log Reductions/mL): 2.1
log reduction at 0.22 % ([1]; Mycolicibacter terrae, 1 h, 0.22%, 20° C., 60 min, read-out: Log Reductions/mL): 2.1
concentration effective to achieve a total kill ([1]; within 15 minutes, 20° C.): 0.4 to 0.7%
concentration effective to achieve a total kill of the bacteria ([1]; within 60 minutes, 20° C.): 0.3 to 0.4%
